Experimental data as given in US20260365628A1, “SUBSTITUTED 3,4-DIHYDROQUINOLINONE INHIBITORS OF TSHR” (Septerna, Inc., priority 2022, published 2026).

What follows are compounds tested against T1, hTSHR (Homo sapiens, UniProt P16473) (assay: hTSHR TR-FRET cAMP Assay (inhibition of M22-stimulated cAMP production)). Conditions: Expi293F Inducible cells stably expressing hTSHR; cAMP HTRF; stimulated with EC80 of anti-TSHR antibody M22; 15 min compound preincubation, 30 min at 37° C.; read-out: Activity (IC50 bins).
T1 construct: expressed in transfected cells
Type: cell-based
Summary of the method: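 Readout was a cAMP HTRF ratio of 655/620 nm after lysis, scaled between the EC80 M22 signal (0% inhibition) and no-agonist vehicle (100%). Frozen induced Expi293F-hTSHR cells saw test compounds (0.5% DMSO) for 15 min at 37 °C before 30 min of M22 stimulation at EC80.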

T1 sequence (P16473 21-764): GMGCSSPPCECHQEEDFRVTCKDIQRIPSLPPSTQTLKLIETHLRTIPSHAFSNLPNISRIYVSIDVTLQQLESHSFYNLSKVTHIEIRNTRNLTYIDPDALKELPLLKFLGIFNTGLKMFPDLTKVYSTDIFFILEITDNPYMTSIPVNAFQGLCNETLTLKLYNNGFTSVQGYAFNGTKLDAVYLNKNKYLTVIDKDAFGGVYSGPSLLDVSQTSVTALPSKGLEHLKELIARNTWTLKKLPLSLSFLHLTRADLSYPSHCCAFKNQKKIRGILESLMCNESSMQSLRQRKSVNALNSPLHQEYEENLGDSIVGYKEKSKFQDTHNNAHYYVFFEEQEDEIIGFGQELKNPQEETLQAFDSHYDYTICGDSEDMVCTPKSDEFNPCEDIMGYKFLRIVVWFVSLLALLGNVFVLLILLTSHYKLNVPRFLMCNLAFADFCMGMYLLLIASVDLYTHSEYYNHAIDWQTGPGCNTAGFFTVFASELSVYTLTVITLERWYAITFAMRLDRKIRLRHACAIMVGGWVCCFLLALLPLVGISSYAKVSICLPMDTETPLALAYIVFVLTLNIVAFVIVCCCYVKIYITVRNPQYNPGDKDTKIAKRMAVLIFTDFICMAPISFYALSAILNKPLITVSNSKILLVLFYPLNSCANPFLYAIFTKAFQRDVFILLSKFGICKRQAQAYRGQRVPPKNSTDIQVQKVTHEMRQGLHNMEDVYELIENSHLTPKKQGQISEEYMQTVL

SMILES	IC50 [nM]
C[C@H](c1cccc(Cl)c1)N1C(=O)CCc2nc(NC(=O)NC(C)(C)C)ccc21 [Example 291, (R)-1-(tert-butyl)-3-(5-(1-(3-chlorophenyl)ethyl)-6-oxo-5,6,7,8-tetrahydro-1,5-naphthyridin-2-yl)urea]	100 to 1000
CC(C)(C)NC(=O)Nc1ccc2c(c1)OC(C)(C)C(=O)N2Cc1ccccc1 [Example 292, 1-(4-benzyl-2,2-dimethyl-3-oxo-3,4-dihydro-2H-benzo[b][1,4]oxazin-7-yl)-3-(tert-butyl)urea]	> 1000
CC(c1cc(Cl)ccc1C#N)N1C(=O)COc2cc(NC(=O)NC(C)(C)C)ccc21 (stereo not drawn) [Example 293, 1-(tert-butyl)-3-(4-(1-(5-chloro-2-cyanophenyl)ethyl)-3-oxo-3,4-dihydro-2H-benzo[b][1,4]oxazin-7-yl)urea]	> 1000
CC(C)(C)NC(=O)Nc1ccc2c(c1)nc(N)c(=O)n2Cc1ccccc1 [Example 294, 1-(3-amino-1-benzyl-2-oxo-1,2-dihydroquinoxalin-6-yl)-3-(tert-butyl)urea]	> 1000
CCc1nc2cc(NC(=O)NC(C)(C)C)ccc2n(Cc2cccc(OC(F)(F)F)c2)c1=O [Example 295, 1-(tert-butyl)-3-(3-ethyl-2-oxo-1-(3-(trifluoromethoxy)benzyl)-1,2-dihydroquinoxalin-6-yl)urea]	> 1000
CC(C)(C)NC(=O)Nc1ccc2c(c1)OCC(=O)N2C(c1ccccc1)C(F)(F)F (stereo not drawn) [Example 296, 1-(tert-butyl)-3-(3-oxo-4-(2,2,2-trifluoro-1-phenylethyl)-3,4-dihydro-2H-benzo[b][1,4]oxazin-7-yl)urea]	100 to 1000
COc1cccc([C@H](C)N2C(=O)CCc3cc(NC(=O)NC(C)(C)C)ccc32)c1 [Example 297, (S)-1-(tert-butyl)-3-(1-(1-(3-methoxyphenyl)ethyl)-2-oxo-1,2,3,4-tetrahydroquinolin-6-yl)urea]	100 to 1000
CC(C)(C)NC(=O)Nc1ccc2c(c1)CCC(=O)N2C1CCOc2ccccc21 (stereo not drawn) [Example 298, 1-(tert-butyl)-3-(1-(chroman-4-yl)-2-oxo-1,2,3,4-tetrahydroquinolin-6-yl)urea]	> 1000
C[C@@H](c1cccc(C(F)(F)F)n1)n1c(=O)cnc2cc(NC(=O)CCc3cccc(C(F)(F)F)c3)ccc21 [Example 299, (S)—N-(2-oxo-1-(1-(6-(trifluoromethyl)pyridin-2-yl)ethyl)-1,2-dihydroquinoxalin-6-yl)-3-(3-(trifluoromethyl)phenyl)propanamide]	100 to 1000
C[C@@H](c1cccc(C(F)(F)F)n1)n1c(=O)cnc2cc(NC(=O)CCC(C)(C)C)ccc21 [Example 300, (S)-4,4-dimethyl-N-(2-oxo-1-(1-(6-(trifluoromethyl)pyridin-2-yl)ethyl)-1,2-dihydroquinoxalin-6-yl)pentanamide]	100 to 1000
CC(C)(C)NC(=O)Nc1ccc2c(c1)CC(C(F)(F)F)C(=O)N2Cc1ccccc1 (stereo not drawn) [Example 301, 1-(1-benzyl-2-oxo-3-(trifluoromethyl)-1,2,3,4-tetrahydroquinolin-6-yl)-3-(tert-butyl)urea]	> 1000
CC(C)(C)NC(=O)Nc1ccc2c(c1)CNC(=O)N2Cc1ccccc1 [Example 302, 1-(1-benzyl-2-oxo-1,2,3,4-tetrahydroquinazolin-6-yl)-3-(tert-butyl)urea]	> 1000
C[C@H]1Oc2cc(NC(=O)OC3CCCC3)ccc2N([C@@H](C)c2ccccc2)C1=O [Example 303, cyclopentyl ((R)-2-methyl-3-oxo-4-((S)-1-phenylethyl)-3,4-dihydro-2H-benzo[b][1,4]oxazin-7-yl)carbamate]	< 100
C[C@H]1Oc2cc(NC(=O)OC3CCCC3)ccc2N(Cc2cccc(C(F)(F)F)n2)C1=O [Example 304, cyclopentyl N-[(2R)-2-methyl-3-oxo-4-{[6-(trifluoromethyl)pyridin-2-yl]methyl}-2H-1,4-benzoxazin-7-yl]carbamate]	< 100
CC(C)(C)NC(=O)Nc1ccc2c(c1)OC(CF)C(=O)N2Cc1ccccc1 (stereo not drawn) [Example 305, 1-[4-benzyl-2-(fluoromethyl)-3-oxo-2H-1,4-benzoxazin-7-yl]-3-tert-butylurea]	100 to 1000
C[C@H](c1cncc(C(F)(F)F)n1)N1C(=O)[C@@H](C)Oc2cc(NC(=O)NC(C)(C)C)ccc21 [Example 307, 1-(tert-butyl)-3-((R)-2-methyl-3-oxo-4-((R)-1-(6-(trifluoromethyl)pyrazin-2-yl)ethyl)-3,4-dihydro-2H-benzo[b][1,4]oxazin-7-yl)urea]	100 to 1000
CC1(C)CCCC1C(=O)Nc1ccc2c(c1)ncc(=O)n2Cc1ccccc1 (stereo not drawn) [Example 308, N-(1-benzyl-2-oxo-1,2-dihydroquinoxalin-6-yl)-2,2-dimethylcyclopentane-1-carboxamide]	100 to 1000

SMILES	IC50 [nM]
CC(C)(C)NC(=O)Nc1ccc2c(c1)CCC(=O)N2C1CCc2ccccc21 (stereo not drawn) [Example 309, 1-(tert-butyl)-3-(1-(2,3-dihydro-1H-inden-1-yl)-2-oxo-1,2,3,4-tetrahydroquinolin-6-yl)urea]	100 to 1000
CC(c1cccc(OC(F)(F)F)c1F)n1c(=O)cnc2cc(NC(=O)NC(C)(C)C)ccc21 (stereo not drawn) [Example 312, 1-(tert-butyl)-3-(1-(1-(2-fluoro-3-(trifluoromethoxy)phenyl)ethyl)-2-oxo-1,2-dihydroquinoxalin-6-yl)urea]	100 to 1000
C[C@@H](c1cccc(OCC(F)(F)F)c1)n1c(=O)cnc2cc(NC(=O)NC(C)(C)C)ccc21 [Example 313, (S)-1-(tert-butyl)-3-(2-oxo-1-(1-(3-(2,2,2-trifluoroethoxy)phenyl)ethyl)-1,2-dihydroquinoxalin-6-yl)urea]	> 1000
C[C@H](c1cccc(OCC(F)(F)F)c1)n1c(=O)cnc2cc(NC(=O)NC(C)(C)C)ccc21 [Example 314, (R)-1-(tert-butyl)-3-(2-oxo-1-(1-(3-(2,2,2-trifluoroethoxy)phenyl)ethyl)-1,2-dihydroquinoxalin-6-yl)urea]	100 to 1000
C[C@@H](c1cccc(OC(F)(F)F)c1)n1c(=O)cnc2cc(NC(=O)C3CCCC3)ccc21 [Example 315, (S)—N-(2-oxo-1-(1-(3-(trifluoromethoxy)phenyl)ethyl)-1,2-dihydroquinoxalin-6-yl)cyclopentanecarboxamide]	100 to 1000
C[C@H]1Oc2cc(NC(=O)NC(C)(C)C)ccc2N([C@@H](C)c2nccc(C(F)(F)F)n2)C1=O [Example 316, 1-(tert-butyl)-3-((R)-2-methyl-3-oxo-4-((S)-1-(4-(trifluoromethyl)pyrimidin-2-yl)ethyl)-3,4-dihydro-2H-benzo[b][1,4]oxazin-7-yl)urea]	> 1000
C[C@H](c1nccc(C(F)(F)F)n1)N1C(=O)[C@@H](C)Oc2cc(NC(=O)NC(C)(C)C)ccc21 [Example 317, 1-(tert-butyl)-3-((R)-2-methyl-3-oxo-4-((R)-1-(4-(trifluoromethyl)pyrimidin-2-yl)ethyl)-3,4-dihydro-2H-benzo[b][1,4]oxazin-7-yl)urea]	100 to 1000
C[C@@H](c1cccc(OC(F)(F)F)n1)n1c(=O)cnc2cc(NC(=O)CCc3cccc(C(F)(F)F)c3)ccc21 [Example 318, (S)—N-(2-oxo-1-(1-(6-(trifluoromethoxy)pyridin-2-yl)ethyl)-1,2-dihydroquinoxalin-6-yl)-3-(3-(trifluoromethyl)phenyl)propanamide]	100 to 1000
C[C@@H](c1cccc(Cl)c1)n1c(=O)cnc2cc(NC(=O)NC3(C)CCC3)ccc21 [Example 319, (S)-1-(1-(1-(3-chlorophenyl)ethyl)-2-oxo-1,2-dihydroquinoxalin-6-yl)-3-(1-methylcyclobutyl)urea]	100 to 1000
C[C@@H](c1cccc(C(F)(F)F)c1)n1c(=O)cnc2cc(NC(=O)NC3(C)CCC3)ccc21 [Example 320, (S)-1-(1-methylcyclobutyl)-3-(2-oxo-1-(1-(3-(trifluoromethyl)phenyl)ethyl)-1,2-dihydroquinoxalin-6-yl)urea]	100 to 1000
C[C@H]1Oc2cc(NC(=O)NC3(C)CCCC3)ccc2N(Cc2cccc(OC(F)(F)F)n2)C1=O [Example 321, (R)-1-(2-methyl-3-oxo-4-((6-(trifluoromethoxy)pyridin-2-yl)methyl)-3,4-dihydro-2H-benzo[b][1,4]oxazin-7-yl)-3-(1-methylcyclopentyl)urea]	< 100
C[C@H]1Oc2cc(NC(=O)NC3(C)CCCC3)ccc2N([C@@H](C)c2cccc(C(F)(F)F)n2)C1=O [Example 322, 1-((R)-2-methyl-3-oxo-4-((S)-1-(6-(trifluoromethyl)pyridin-2-yl)ethyl)-3,4-dihydro-2H-benzo[b][1,4]oxazin-7-yl)-3-(1-methylcyclopentyl)urea]	< 100
C[C@H]1Oc2cc(NC(=O)NC3(C)CCCC3)ccc2N([C@@H](C)c2cccc(OC(F)(F)F)n2)C1=O [Example 323, 1-((R)-2-methyl-3-oxo-4-((S)-1-(6-(trifluoromethoxy)pyridin-2-yl)ethyl)-3,4-dihydro-2H-benzo[b][1,4]oxazin-7-yl)-3-(1-methylcyclopentyl)urea]	< 100
C[C@H]1Oc2cc(NC(=O)N[C@H]3C[C@H](C(F)(F)F)C3)ccc2N([C@@H](C)c2cccc(OC(F)(F)F)c2)C1=O [Example 324, 1-((R)-2-methyl-3-oxo-4-((S)-1-(3-(trifluoromethoxy)phenyl)ethyl)-3,4-dihydro-2H-benzo[b][1,4]oxazin-7-yl)-3-((1r,3R)-3-(trifluoromethyl)cyclobutyl)urea]	100 to 1000
C[C@H]1Oc2cc(NC(=O)N[C@H]3C[C@@H](C(F)(F)F)C3)ccc2N([C@@H](C)c2cccc(OC(F)(F)F)c2)C1=O [Example 325, 1-((R)-2-methyl-3-oxo-4-((S)-1-(3-(trifluoromethoxy)phenyl)ethyl)-3,4-dihydro-2H-benzo[b][1,4]oxazin-7-yl)-3-((1s,3S)-3-(trifluoromethyl)cyclobutyl)urea]	100 to 1000
C[C@H]1Oc2cc(NC(=O)NC(C)(C)C)c(F)cc2N(Cc2ccccc2)C1=O [Example 326, (R)-1-(4-benzyl-6-fluoro-2-methyl-3-oxo-3,4-dihydro-2H-benzo[b][1,4]oxazin-7-yl)-3-(tert-butyl)urea]	100 to 1000
